Assay results from PubChem BioAssay (NCI).
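Growth conditions: 96-well plates. Treatment: test compound, 48 hours, 5 concentrations. Analysis: linear interpolation between bracketing concentrations; unreached endpoints set to highest concentration. TGI marks complete inhibition of growth.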

What was measured:
Assay in all cases: growth of human tumour cells (NCI), 48 h
HL-60(TB) leukemia = tested on: HL-60(TB) leukemia
HOP-62 NSCLC = tested on: HOP-62 NSCLC
SK-OV-3 ovarian = tested on: SK-OV-3 ovarian
UO-31 renal = tested on: UO-31 renal
T-47D breast = tested on: T-47D breast
786-0 renal = tested on: 786-0 renal
SNB-19 CNS = tested on: SNB-19 CNS
SN12C renal = tested on: SN12C renal
HCC-2998 colon = tested on: HCC-2998 colon
MDA-N = tested on: MDA-N
DU-145 prostate = tested on: DU-145 prostate
NCI-H522 lung = tested on: NCI-H522 lung
OVCAR-5 ovarian = tested on: OVCAR-5 ovarian
HCT-15 colon = tested on: HCT-15 colon
KM12 colon = tested on: KM12 colon
HOP-92 NSCLC = tested on: HOP-92 NSCLC
PC-3 prostate = tested on: PC-3 prostate
MALME-3M melanoma = tested on: MALME-3M melanoma
HS 578T breast = tested on: HS 578T breast
NCI-H23 lung = tested on: NCI-H23 lung
NCI-H460 lung = tested on: NCI-H460 lung
EKVX NSCLC = tested on: EKVX NSCLC
SR leukemia = tested on: SR leukemia
RPMI-8226 leukemia = tested on: RPMI-8226 leukemia
CAKI-1 renal = tested on: CAKI-1 renal
NCI/ADR-RES ovarian = tested on: NCI/ADR-RES ovarian
U251 CNS = tested on: U251 CNS
SK-MEL-2 melanoma = tested on: SK-MEL-2 melanoma
SK-MEL-5 melanoma = tested on: SK-MEL-5 melanoma
HCT-116 colon = tested on: HCT-116 colon
HT29 colon = tested on: HT29 colon
UACC-257 melanoma = tested on: UACC-257 melanoma
A549 NSCLC = tested on: A549 NSCLC
OVCAR-8 ovarian = tested on: OVCAR-8 ovarian
SK-MEL-28 melanoma = tested on: SK-MEL-28 melanoma
MOLT-4 leukemia = tested on: MOLT-4 leukemia
UACC-62 melanoma = tested on: UACC-62 melanoma
K-562 leukemia = tested on: K-562 leukemia
IGROV1 ovarian = tested on: IGROV1 ovarian
ACHN renal = tested on: ACHN renal
COLO 205 colon = tested on: COLO 205 colon
OVCAR-3 ovarian = tested on: OVCAR-3 ovarian
MDA-MB-435 = tested on: MDA-MB-435
CCRF-CEM leukemia = tested on: CCRF-CEM leukemia
LOX IMVI melanoma = tested on: LOX IMVI melanoma
NCI-H226 lung = tested on: NCI-H226 lung
RXF 393 renal = tested on: RXF 393 renal
TK-10 renal = tested on: TK-10 renal
SF-268 CNS = tested on: SF-268 CNS
SNB-75 CNS = tested on: SNB-75 CNS
SW-620 colon = tested on: SW-620 colon
OVCAR-4 ovarian = tested on: OVCAR-4 ovarian
SF-539 CNS = tested on: SF-539 CNS
MCF7 breast = tested on: MCF7 breast
SF-295 CNS = tested on: SF-295 CNS
MDA-MB-231 breast = tested on: MDA-MB-231 breast
M14 melanoma = tested on: M14 melanoma

Measured: TGI

Cc1cc(=O)oc2c(CNC(Cc3ccccc3)C(=O)O)c(O)ccc12 (configuration not stated)
> 100 µM: all assays above
